Experiments:
[1] = molecular target: SARS-CoV-2 M^pro (Severe acute respiratory syndrome coronavirus 2, UniProt P0DTD1); test: FRET based assay of SARS-CoV-2 Mpro protease activity; type: biochemical
[2] = molecular target: SARS-CoV-2 PL^pro (Severe acute respiratory syndrome coronavirus 2, UniProt P0DTD1); test: SARS-CoV-2 PLpro protease activity, peptide substrate Z-RLRGG-AMC; type: biochemical
[3] = test system: wild type SARS-CoV-2 pseudo-particles; test: microbe, parasite or virus in culture; type: cell-based; conditions: Severe acute respiratory syndrome coronavirus 2, Vero C1008
[4] = test system: wild type SARS-CoV-2 pseudo-particles; type: cell-based
[5] = test system: wild type SARS-CoV-2 pseudo-particles; type: cell-based; remark: listed apart in the source
[6] = in vitro; conditions: African green monkey
[7] = read-out: inhibitory effect on the protease activity of SARS-CoV-2 PL^pro

CCN(CC)C(=S)SSC(=S)N(CC)CC [disulfiram]
inhibition at 1 µM [1]: 16% | inhibition at 5 µM [1]: 80.9% | inhibition at 10 µM [1]: 87.1% | inhibition of protease activity of SARS-CoV-2 M^pro ([1]; 30 μM disulfiram): full inhibition | inhibition of protease activity of SARS-CoV-2 M^pro ([1]; 60 μM disulfiram): full inhibition | inhibitory effect on the protease activity of SARS-CoV-2 PL^pro ([2]; 1 μM disulfiram): does not inhibit | inhibition at 5 µM [2, 7]: 21.7% | inhibition at 10 µM [2, 7]: 36.3% | inhibition at 30 µM [2, 7]: 77.9% | inhibition at 60 µM [2, 7]: 99.9% | EC50 [3]: 3.1 µM | block of viral pseudo-particles infection [4]: dose-dependent manner | inhibitory capacity in furin-expressing Vero E6 cells compared with Vero E6 cells [5]: similar | CC50 [6]: 15.7 µM

Reference: patent US20210386695A1 (priority 2020, published 2021)
